Measurements as given in US6630485B2, “p38 map kinase inhibitors” (Syntex (U.S.A.) LLC, priority 1997, dated 2003).

What was measured:
[1] = test system: TNF-α; assay: Inhibition of LPS-induced TNF-α production in mice, in vivo assay; conditions: female BALB/c mice, dosed orally at 30 mg, 30 min before 20 μg LPS i.p., serum TNF-α after 1.5 h
Description: The ability of the compounds of this invention to inhibit the TNF-α release, in vivo, was determined using a minor modification of the methods described in described in Zanetti, G.; Heumann, D., et. al., “Cytokine production after intravenous or peritoneal Gram-negative bacterial challenge in mice,” J. Immunol., 148, 1890, (1992) and Sekut, L., Menius, J. A., et. al., “Evaluation of the significance of elevated levels of systemic and localized tumor necrosis factor in different animal models of inflammation,” J. Lab. Clin. Med., 124, 813, (1994).
Female BALB/c mice weighing 18-21 grams (Charles River, Hollister, Calif.) were acclimated for one week. Groups containing 8 […] each were dosed orally either with the test compounds dissolved in an aqueous vehicle containing 0.9% sodium chloride, 0.5% sodium carboxymethyl-cellulose, 0.4% polysorbate 80, 0.9% benzyl alcohol (CMC vehicle) or only vehicle (control group). After 30 min., the mice were injected intraperitoneally with 20 μg of LPS (Sigma, St. Louis, Mo.). After 1.5 h, the mice were sacrificed by CO2 inhalation and blood was harvested by cardiocentesis. Blood was clarified by centrifugation at 15,600×g for 5 min., and sera were transferred to clean tubes and frozen at −20° C. until analyzed for TNF-α by ELISA assay (Biosource International, Camarillo, Calif.) following the manufacturer's protocol.
The TNF-α inhibitory activity of test materials, i.e., the measure of the TNF-α content in the test group relative to the vehicle treated group (control group) at 30 mg was: […]

[2] = test system: TNF-α; assay: Inhibition of LPS-induced TNF-α production in THP1 cells, in vitro assay (ELISA); format: cell-based; conditions: Homo sapiens; THP-1 cells, LPS 0.5 μg/ml, 2 h; read-out: IC50 (half-maximal reduction in 450 nm absorbance, TNF-α ELISA)
Description: The ability of the compounds of this invention to inhibit the TNF-α release was determined using a minor modification of the methods described in described in Blifeld, C. et al. Transplantation, Vol. 51(2), 498-503, (1991).
THP-1 cells were suspended in culture medium [RPMI (Gibco-BRL, Gailthersburg, Md.) containing 15% fetal bovine serum, 0.02 mM 2-mercaptoethanol], at a concentration of 2.5×10^6 cells/ml and then plated in 96 well plate (0.2 ml aliquots in each well). Test compounds were dissolved DMSO and then diluted with the culture medium such that the final DMSO concentration was 5%. 20 μl aliquots of test solution or only medium with DMSO (control) were added to each well. The cells were incubated for 30 min., at 37° C. LPS (Sigma, St. Louis, Mo.) was added to the wells at a final concentration of 0.5 μg/ml, and cells were incubated for an additional 2 h. At the end of the incubation period, culture supernatants were collected and the amount of TNF-α present was determined using an ELISA assay as described below.
The amount of human TNF-α present was determined by a specific trapping ELISA assay using two anti-TNF-α antibodies (2TNF-H22 and 2TNF-H34) described in Reimund, J. M., et al. GUT Vol. 39(5), 684-689 (1996).
Polystyrene 96-well plates were coated with 50 μl per well of antibody 2TNF-H22 in PBS (10 μg/ml) and incubated in a humidified chamber at 4° C. overnight. The plates were washed with PBS and then blocked with 5% nonfat-dry milk in PBS for 1 hour at room temperature and washed with 0.1% BSA (bovine serum albumin) in PBS.
TNF standards were prepared from a stock solution of human recombinant TNF-α (R&D Systems, Minneapolis, Minn.). The concentration of the standards in the assay began at 10 ng/ml followed by 6 half log serial dilution's.
25 μl aliquots of the above culture supernatants or TNF standards or only medium (control) were mixed with 25 μl aliquots of biotinylated monoclonal antibody 2TNF-H34 (2 μg/ml in PBS containing 0.1% BSA) and then added to each well. The samples were incubated for 2 h at room temperature with gentle shaking and then washed 3 times with 0.1% BSA in PBS. 50 μl of peroxidase-streptavidin (Zymed, S. San Francisco, Calif.) solution containing 0.416 μg/ml of peroxidase-streptavidin and 0.1% BSA in PBS was added to each well. The samples were incubated for an additional 1 h at room temperature and then washed 4 times with 0.1% BSA in PBS. 50 μl of O-phenylenediamine solution (1 μg/ml O-phenylene-diamine and 0.03% hydrogen peroxide in 0.2M citrate buffer pH 4.5) was added to each well and the samples were incubated in the dark for 30 min., at room temperature. Optical density of the sample and the reference were read at 450 nm and 650 nm, respectively. TNF-α levels were determined from a graph relating the optical density at 450 nm to the concentration used.
The IC50 value was defined as the concentration of the test compound corresponding to half-maximal reduction in 450 nm absorbance.

[3] = biological target: T1, p38 MAP kinase (Homo sapiens, UniProt Q16539); assay: Inhibition of p-38 (MAP) kinase, in vitro assay (33P transfer from γ-33P-ATP to Myelin Basic Protein); format: biochemical; conditions: phosphorylated recombinant p38 MAP kinase, MBP substrate, 30° C., read-out: IC50 (concentration causing 50% inhibition of the p-38 enzyme)
T1 construct: made in house; host or cells: E. coli
Description: The p-38 MAP kinase inhibitory activity of compounds of this invention in vitro was determined by measuring the transfer of the γ-phosphate from γ-^33P-ATP by p-38 kinase to Myelin Basic Protein (MBP), using the a minor modification of the method described in Ahn, N. G.; et al. J. of Biol. Chem. Vol. 266(7), 4220-4227, (1991)
The phosphorylated form of the recombinant p38 MAP kinase was expressed with SEK-1 and MEKK in E. coli (see, Khokhlatchev, A. et al. J. of Biol. Chem. Vol. 272(17), 11057-11062, (1997) and then purified by affinity chromatography using a Nickel column.
The phosphorylated p38 MAP kinase was diluted in kinase buffer (20 mM 3-(N-morpholino)propanesulfonic acid, pH 7.2, 25 mM β-glycerol phosphate, 5 mM ethylene glycol-bis(beta-aminoethyl ether)-N,N,N′,N′-tetraacetic acid, 1 mM sodium vanadate, 1 mM dithiothreitol, 40 mM magnesium chloride). Test compound dissolved in DMSO or only DMSO (control) was added and the samples were incubated for 10 min. at 30° C. The kinase reaction was initiated by the addition of a substrate cocktail containing MBP and γ-^33P-ATP. After incubating for an additional 20 min. at 30° C., the reaction was terminated by adding 0.75% phosphoric acid. The phosphorylated MBP was then separated from the residual γ-^33P-ATP using a phosphocellulose membrane (Millipore, Bedfrod, Mass.) and quantitated using a scintillation counter (Packard, Meriden, Conn.).
The p-38 inhibitory activities (expressed as IC50, the concentration causing 50% inhibition of the p-38 enzyme being assayed) of some compounds of the invention is: […]

T1 sequence (Q16539 whole entry): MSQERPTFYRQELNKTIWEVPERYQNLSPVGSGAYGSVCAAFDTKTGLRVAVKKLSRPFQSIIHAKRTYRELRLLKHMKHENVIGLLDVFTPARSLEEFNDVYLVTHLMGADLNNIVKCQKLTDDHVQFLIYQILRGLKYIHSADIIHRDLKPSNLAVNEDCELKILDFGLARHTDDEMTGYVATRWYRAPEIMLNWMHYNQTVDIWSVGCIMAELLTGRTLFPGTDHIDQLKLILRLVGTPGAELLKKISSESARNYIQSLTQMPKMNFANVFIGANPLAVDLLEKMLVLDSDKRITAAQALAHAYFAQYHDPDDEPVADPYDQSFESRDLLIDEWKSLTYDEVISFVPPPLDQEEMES

melting point	IC50 [2]	IC50 [3]	SMILES	% Inhibition (TNF-α content in test group relative to vehicle treated group) [1]
225 to 228 °C	–	–	On1c(-c2ccncc2)c(-c2ccc(F)cc2)c2ncccc21 [compound 1, 3-(4-Fluorophenyl)-1-hydroxy-2-(pyridin-4-yl)-1H-pyrrolo[3,2-b]pyridine]	–
168 to 171.5 °C	460 nM	68 nM	COn1c(-c2ccncc2)c(-c2ccc(F)cc2)c2ncccc21 [compound 2, 3-(4-Fluorophenyl)-1-methoxy-2-(pyridin-4-yl)-1H-pyrrolo[3,2-b]pyridine]	75%
139 to 141 °C	–	221 nM	Fc1ccc(-c2c(-c3ccncc3)n(OCCN3CCOCC3)c3cccnc23)cc1 [compound 3, 3-(4-Fluorophenyl)-1-[2-(morpholin-4-yl)ethoxy]-2-(pyridin-4-yl)-1H-pyrrolo[3,2-b]pyridine]	56%
95.9 to 98.7 °C	–	–	Fc1ccc(-c2c(-c3ccncc3)n(OCCN3CCCCC3)c3cccnc23)cc1 [compound 4, 3-(4-Fluorophenyl)-1-[2-(piperidin-1-yl)ethoxy]-2-(pyridin-4-yl)-1H-pyrrolo[3,2-b]pyridine]	–
123 to 129 °C	120 nM	246 nM	Fc1ccc(-c2c(-c3ccncc3)n(OCCN3CCCC3)c3cccnc23)cc1 [compound 5, 3-(4-fluorophenyl)-2-(pyridin-4-yl)-1-[2-(pyrrolidin-1-yl)ethoxy]-1H-pyrrolo[3,2-b]pyridine]	–
> 285 °C	–	–	Fc1ccc(-c2c(-c3ccncc3)[nH]c3cccnc23)cc1 [compound 6, 3-(4-Fluorophenyl)-2-(pyridin-4-yl)-1H-pyrrolo[3,2-b]pyridine]	68%
204 to 206 °C	–	–	CCn1c(-c2ccncc2)c(-c2ccc(F)cc2)c2ncccc21 [compound 7, 1-Ethyl-3-(4-fluorophenyl)-2-(pyridin-4-yl)-1H-pyrrolo[3,2-b]pyridine]	–
171.2 to 173 °C	–	–	Fc1ccc(-c2c(-c3ccncc3)n(CCN3CCOCC3)c3cccnc23)cc1 [compound 8, 3-(4-Fluorophenyl)-2-(pyridin-4-yl)-1-[2-(morpholin-4-yl)ethyl]-1H-pyrrolo[3,2-b]-pyridine]	–
148.1 to 153.3 °C	300 nM	–	Fc1ccc(-c2c(-c3ccncc3)n(CCN3CCCCC3)c3cccnc23)cc1 [compound 9, 3-(4-Fluorophenyl)-1-[2-(piperidin-1-yl)ethyl]-2-(pyridin-4-yl)-1H-pyrrolo[3,2-b]pyridine]	–
141 to 143 °C	–	85.5 nM	Fc1ccc(-c2c(-c3ccncc3)oc3cccnc23)cc1 [compound 101, 3-(4-Fluorophenyl)-2-(pyridin-4-yl)-furo[3,2-b]pyridine]	86%
224.8 to 225.2 °C	–	–	Fc1ccc(-c2c(-c3ccnc(Cl)n3)oc3cccnc23)cc1 [compound 102, 2-(2-Chloropyrimidin-4-yl)-3-(4-fluorophenyl)-furo[3,2-b]pyridine]	–
252.9 to 253.7 °C	–	–	Nc1nccc(-c2oc3cccnc3c2-c2ccc(F)cc2)n1 [compound 103, 2-(2-Aminopyrimidin-4-yl)-3-(4-fluorophenyl)-furo[3,2-b]pyridine]	–
256 to 257 °C	–	–	Fc1ccc(-c2c(-c3ccncc3)[nH]c3ccncc23)cc1 [compound 105, 3-(4-Fluorophenyl)-2-(pyridin-4-yl)-1H-pyrrolo[3,2-c]pyridine]	–
–	1100 nM	120 nM	Fc1ccc(-c2c(-c3ccncc3)[nH]c3nccnc23)cc1 [compound 106, 7-(4-Fluorophenyl)-6-(pyridin-4-yl)-5H-pyrrolo[2,3-b]pyrazine]	–
–	8830 nM	747 nM	N#CCCCn1c(-c2ccncc2)c(-c2ccc(F)cc2)c2nccnc21 [compound 108]	–
–	241 nM	34.4 nM	OCCNc1cc(-c2[nH]c3nccnc3c2-c2ccc(F)cc2)ccn1 [compound 112]	–
